Active and inactive are the calls of the source. The calls are words filed in the database; no cut-off is given here.
Columns and labels:
[1] = target: T1, Tyrosine-protein kinase JAK1 (Homo sapiens, UniProt P23458); assay: Inhibition of JAK1 in human NCI-H1975 cells assessed as reduction in STAT3 phosphorylation at 0.003 to 3 uM after 2 hrs by Western blot analysis; assay type: cell-based
[2] = target: T2, Tyrosine-protein kinase JAK2 (Homo sapiens, UniProt O60674); assay: Inhibition of JAK2 in human HEL 92.1.7 cells assessed as reduction in STAT5 phosphorylation after 2 hrs by Western blot analysis; assay type: cell-based
T2 sequence (O60674 whole entry): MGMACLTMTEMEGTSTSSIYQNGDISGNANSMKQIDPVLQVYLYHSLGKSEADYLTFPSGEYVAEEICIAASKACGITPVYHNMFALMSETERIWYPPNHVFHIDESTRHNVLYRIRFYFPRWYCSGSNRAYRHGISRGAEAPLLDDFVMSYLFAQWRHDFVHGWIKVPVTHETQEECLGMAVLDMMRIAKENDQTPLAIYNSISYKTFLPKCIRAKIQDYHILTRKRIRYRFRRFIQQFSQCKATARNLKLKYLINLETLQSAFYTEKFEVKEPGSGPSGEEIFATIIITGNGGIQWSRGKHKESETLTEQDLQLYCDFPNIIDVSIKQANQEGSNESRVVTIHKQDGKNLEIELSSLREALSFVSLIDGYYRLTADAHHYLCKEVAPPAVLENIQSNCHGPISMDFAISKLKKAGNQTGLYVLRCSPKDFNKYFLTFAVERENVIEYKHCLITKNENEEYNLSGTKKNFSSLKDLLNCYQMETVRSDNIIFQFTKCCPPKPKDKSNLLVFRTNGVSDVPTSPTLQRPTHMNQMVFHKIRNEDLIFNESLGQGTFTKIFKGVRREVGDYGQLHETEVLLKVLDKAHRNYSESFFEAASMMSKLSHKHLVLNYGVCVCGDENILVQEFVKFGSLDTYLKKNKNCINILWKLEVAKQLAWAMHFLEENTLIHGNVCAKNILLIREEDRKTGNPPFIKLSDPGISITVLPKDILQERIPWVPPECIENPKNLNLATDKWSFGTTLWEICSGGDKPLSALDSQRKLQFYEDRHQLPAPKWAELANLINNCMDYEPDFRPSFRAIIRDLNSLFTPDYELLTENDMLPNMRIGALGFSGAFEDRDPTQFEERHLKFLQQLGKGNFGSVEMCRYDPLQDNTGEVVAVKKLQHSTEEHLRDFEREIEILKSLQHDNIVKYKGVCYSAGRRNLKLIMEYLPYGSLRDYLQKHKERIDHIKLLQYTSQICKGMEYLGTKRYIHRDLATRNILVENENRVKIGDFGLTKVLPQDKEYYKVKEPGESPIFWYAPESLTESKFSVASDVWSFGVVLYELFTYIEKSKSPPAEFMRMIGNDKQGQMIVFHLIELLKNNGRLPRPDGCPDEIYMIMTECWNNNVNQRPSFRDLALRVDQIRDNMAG

[3] = Cell cycle arrest in human SW620 cells assessed as accumulation at Sub G1 phase at 10 uM after 24 hrs by propidium iodide staining-based flow cytometric analysis (reference value: 1.6%); assay type: functional; conditions: SW-620
[4] = Cell cycle arrest in human SW620 cells assessed as accumulation at G1 phase at 10 uM after 24 hrs by propidium iodide staining-based flow cytometric analysis (reference value: 61.4%); assay type: functional; conditions: SW-620
[5] = Cell cycle arrest in human SW620 cells assessed as accumulation at S phase at 10 uM after 24 hrs by propidium iodide staining-based flow cytometric analysis (reference value: 13.9%); assay type: functional; conditions: SW-620
[6] = Cell cycle arrest in human SW620 cells assessed as accumulation at G2/M phase at 10 uM after 24 hrs by propidium iodide staining-based flow cytometric analysis (reference value: 17.4%); assay type: functional; conditions: SW-620
[7] = Cell cycle arrest in human SW620 cells assessed as multi-nuclear cells at 10 uM after 24 hrs by propidium iodide staining-based flow cytometric analysis (reference value: 5%); assay type: functional; conditions: SW-620
[8] = Cell cycle arrest in human SW620 cells assessed as accumulation at Sub G1 phase at 1 uM after 24 hrs by propidium iodide staining-based flow cytometric analysis (reference value: 1.6%); assay type: functional; conditions: SW-620
[9] = Cell cycle arrest in human SW620 cells assessed as accumulation at G1 phase at 1 uM after 24 hrs by propidium iodide staining-based flow cytometric analysis (reference value: 61.4%); assay type: functional; conditions: SW-620
[10] = Cell cycle arrest in human SW620 cells assessed as accumulation at S phase at 1 uM after 24 hrs by propidium iodide staining-based flow cytometric analysis (reference value: 13.9%); assay type: functional; conditions: SW-620
[11] = Cell cycle arrest in human SW620 cells assessed as accumulation at G2/M phase at 1 uM after 24 hrs by propidium iodide staining-based flow cytometric analysis (reference value: 17.4%); assay type: functional; conditions: SW-620
[12] = Cell cycle arrest in human SW620 cells assessed as multi-nuclear cells at 1 uM after 24 hrs by propidium iodide staining-based flow cytometric analysis (reference value: 5%); assay type: functional; conditions: SW-620
[13] = target: T2, Tyrosine-protein kinase JAK2; assay: Inhibition of N-terminal GST-fused recombinant JAK2 (831 to 1132 residues) (unknown origin) expressed in insect cells using 5FAM-GEEPLYWSFPAKKK-NH2 as substrate by microfluidic capillary electrophoresis method
[14] = target: T1, Tyrosine-protein kinase JAK1; assay: Inhibition of N-terminal GST-fused human recombinant JAK1 (866 to 1154 residues) expressed in insect cells using FITC-C6-KKHTDDGYMPMSPGVA-NH2 as substrate by microfluidic capillary electrophoresis method
[15] = target: T3, Tyrosine-protein kinase JAK3 (Homo sapiens, UniProt P52333); assay: Inhibition of N-terminal GST-fused recombinant JAK3 (781 to 1124 residues) (unknown origin) expressed in insect cells using 5FAM-GEEPLYWSFPAKKK-NH2 as substrate by microfluidic capillary electrophoresis method
T3 sequence (P52333 whole entry): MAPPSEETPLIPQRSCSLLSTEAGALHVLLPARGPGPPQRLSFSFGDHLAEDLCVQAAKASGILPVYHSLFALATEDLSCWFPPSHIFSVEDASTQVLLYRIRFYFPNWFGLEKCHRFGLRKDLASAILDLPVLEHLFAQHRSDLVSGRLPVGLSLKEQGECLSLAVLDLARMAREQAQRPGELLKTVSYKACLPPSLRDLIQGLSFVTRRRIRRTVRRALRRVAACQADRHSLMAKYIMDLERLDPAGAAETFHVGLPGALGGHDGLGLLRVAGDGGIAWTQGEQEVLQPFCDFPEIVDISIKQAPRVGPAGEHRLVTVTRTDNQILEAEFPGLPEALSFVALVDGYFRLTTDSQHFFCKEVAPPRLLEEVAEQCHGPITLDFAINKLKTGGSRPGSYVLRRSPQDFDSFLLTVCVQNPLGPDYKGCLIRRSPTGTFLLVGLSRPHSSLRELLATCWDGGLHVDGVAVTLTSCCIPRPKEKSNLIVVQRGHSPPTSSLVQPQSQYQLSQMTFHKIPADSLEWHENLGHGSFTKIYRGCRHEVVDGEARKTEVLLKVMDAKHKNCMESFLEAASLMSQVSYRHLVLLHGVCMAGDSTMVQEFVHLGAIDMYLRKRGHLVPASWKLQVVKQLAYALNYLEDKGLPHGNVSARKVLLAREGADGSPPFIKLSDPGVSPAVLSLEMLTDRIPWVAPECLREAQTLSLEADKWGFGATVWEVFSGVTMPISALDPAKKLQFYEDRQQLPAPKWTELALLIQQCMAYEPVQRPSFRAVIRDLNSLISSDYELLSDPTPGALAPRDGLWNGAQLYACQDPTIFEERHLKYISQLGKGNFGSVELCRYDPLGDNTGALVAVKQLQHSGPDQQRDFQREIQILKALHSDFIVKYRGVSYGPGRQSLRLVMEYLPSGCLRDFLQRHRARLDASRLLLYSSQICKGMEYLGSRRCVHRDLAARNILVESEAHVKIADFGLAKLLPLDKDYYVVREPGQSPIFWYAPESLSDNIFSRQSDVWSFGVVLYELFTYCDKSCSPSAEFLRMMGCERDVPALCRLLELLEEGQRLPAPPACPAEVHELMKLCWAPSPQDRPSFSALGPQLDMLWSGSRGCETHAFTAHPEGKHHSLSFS

[16] = organism: Homo sapiens; assay: Selectivity ratio of IC50 for N-terminal GST-fused recombinant JAK2 (831 to 1132 residues) (unknown origin) to N-terminal GST-fused human recombinant JAK1 (866 to 1154 residues)
[17] = target: T1, Tyrosine-protein kinase JAK1; assay: Inhibition of JAK1 in human NCI-H1975 cells assessed as reduction in STAT3 phosphorylation after 2 hrs; assay type: cell-based
[18] = target: Aurora kinase B (Homo sapiens, UniProt Q96GD4); assay: Inhibition of GST-INCENP activated N-terminal 6His-tagged human recombinant full length Aurora B (1 to 344 residues) expressed in baculovirus expression system using 5FAM-LRRASLG as substrate by microfluidic capillary electrophoresis method
Aurora kinase B, sequence (Q96GD4 whole entry, the tested form may be a part): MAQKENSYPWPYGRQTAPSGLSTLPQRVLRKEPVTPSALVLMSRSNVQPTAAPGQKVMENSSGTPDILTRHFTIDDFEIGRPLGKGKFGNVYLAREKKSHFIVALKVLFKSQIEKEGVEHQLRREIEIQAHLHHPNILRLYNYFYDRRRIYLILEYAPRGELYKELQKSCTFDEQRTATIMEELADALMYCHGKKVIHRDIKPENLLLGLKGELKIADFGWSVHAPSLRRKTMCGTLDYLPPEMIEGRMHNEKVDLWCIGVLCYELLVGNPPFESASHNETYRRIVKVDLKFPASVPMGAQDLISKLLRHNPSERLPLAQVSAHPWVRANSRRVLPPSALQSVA

[19] = target: Cyclin-dependent kinase 2/cyclin E1 (Homo sapiens, UniProt P24941); assay: Inhibition of N-terminal 6His-tagged human recombinant full length CDK2 (1 to 304 residues)/Cyclin E1 (1 to 410 residues) expressed in insect cells using FL-Ahx-QSPKKG-CONH2 as substrate by microfluidic capillary electrophoresis method
[20] = target: Non-receptor tyrosine-protein kinase TYK2 (Homo sapiens, UniProt P29597); assay: Inhibition of N-terminal 6His-tagged human recombinant Tyk2
Non-receptor tyrosine-protein kinase TYK2, sequence (P29597 whole entry): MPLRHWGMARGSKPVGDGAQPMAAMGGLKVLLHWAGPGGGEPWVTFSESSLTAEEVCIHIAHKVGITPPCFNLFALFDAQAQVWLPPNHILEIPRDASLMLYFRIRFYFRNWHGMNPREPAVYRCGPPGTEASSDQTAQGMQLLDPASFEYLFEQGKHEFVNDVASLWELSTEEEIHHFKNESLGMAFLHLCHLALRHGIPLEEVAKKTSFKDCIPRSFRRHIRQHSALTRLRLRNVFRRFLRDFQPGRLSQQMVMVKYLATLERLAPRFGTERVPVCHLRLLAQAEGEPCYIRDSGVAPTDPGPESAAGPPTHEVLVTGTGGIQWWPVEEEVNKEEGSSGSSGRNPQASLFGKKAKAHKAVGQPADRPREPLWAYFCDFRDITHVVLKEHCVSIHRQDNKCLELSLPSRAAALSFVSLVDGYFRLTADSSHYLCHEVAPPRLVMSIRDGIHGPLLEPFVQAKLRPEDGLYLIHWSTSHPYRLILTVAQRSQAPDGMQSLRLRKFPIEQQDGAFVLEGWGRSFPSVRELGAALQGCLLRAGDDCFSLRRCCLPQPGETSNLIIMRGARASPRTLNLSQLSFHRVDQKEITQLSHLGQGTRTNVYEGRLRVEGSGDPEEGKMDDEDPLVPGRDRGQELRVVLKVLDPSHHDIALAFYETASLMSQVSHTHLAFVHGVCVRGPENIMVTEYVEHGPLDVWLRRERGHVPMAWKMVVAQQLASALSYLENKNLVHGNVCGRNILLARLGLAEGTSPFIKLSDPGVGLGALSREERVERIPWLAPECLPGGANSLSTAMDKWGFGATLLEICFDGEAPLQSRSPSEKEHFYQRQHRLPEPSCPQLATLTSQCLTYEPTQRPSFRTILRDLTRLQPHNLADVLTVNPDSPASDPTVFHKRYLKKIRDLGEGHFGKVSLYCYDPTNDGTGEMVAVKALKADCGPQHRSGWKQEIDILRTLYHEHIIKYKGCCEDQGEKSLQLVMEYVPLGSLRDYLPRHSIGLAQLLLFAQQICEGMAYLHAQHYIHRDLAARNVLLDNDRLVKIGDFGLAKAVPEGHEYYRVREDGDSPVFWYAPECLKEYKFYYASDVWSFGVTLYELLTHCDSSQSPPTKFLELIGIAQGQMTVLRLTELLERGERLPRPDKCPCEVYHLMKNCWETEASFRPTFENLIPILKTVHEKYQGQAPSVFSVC

T1 sequence (P23458 whole entry): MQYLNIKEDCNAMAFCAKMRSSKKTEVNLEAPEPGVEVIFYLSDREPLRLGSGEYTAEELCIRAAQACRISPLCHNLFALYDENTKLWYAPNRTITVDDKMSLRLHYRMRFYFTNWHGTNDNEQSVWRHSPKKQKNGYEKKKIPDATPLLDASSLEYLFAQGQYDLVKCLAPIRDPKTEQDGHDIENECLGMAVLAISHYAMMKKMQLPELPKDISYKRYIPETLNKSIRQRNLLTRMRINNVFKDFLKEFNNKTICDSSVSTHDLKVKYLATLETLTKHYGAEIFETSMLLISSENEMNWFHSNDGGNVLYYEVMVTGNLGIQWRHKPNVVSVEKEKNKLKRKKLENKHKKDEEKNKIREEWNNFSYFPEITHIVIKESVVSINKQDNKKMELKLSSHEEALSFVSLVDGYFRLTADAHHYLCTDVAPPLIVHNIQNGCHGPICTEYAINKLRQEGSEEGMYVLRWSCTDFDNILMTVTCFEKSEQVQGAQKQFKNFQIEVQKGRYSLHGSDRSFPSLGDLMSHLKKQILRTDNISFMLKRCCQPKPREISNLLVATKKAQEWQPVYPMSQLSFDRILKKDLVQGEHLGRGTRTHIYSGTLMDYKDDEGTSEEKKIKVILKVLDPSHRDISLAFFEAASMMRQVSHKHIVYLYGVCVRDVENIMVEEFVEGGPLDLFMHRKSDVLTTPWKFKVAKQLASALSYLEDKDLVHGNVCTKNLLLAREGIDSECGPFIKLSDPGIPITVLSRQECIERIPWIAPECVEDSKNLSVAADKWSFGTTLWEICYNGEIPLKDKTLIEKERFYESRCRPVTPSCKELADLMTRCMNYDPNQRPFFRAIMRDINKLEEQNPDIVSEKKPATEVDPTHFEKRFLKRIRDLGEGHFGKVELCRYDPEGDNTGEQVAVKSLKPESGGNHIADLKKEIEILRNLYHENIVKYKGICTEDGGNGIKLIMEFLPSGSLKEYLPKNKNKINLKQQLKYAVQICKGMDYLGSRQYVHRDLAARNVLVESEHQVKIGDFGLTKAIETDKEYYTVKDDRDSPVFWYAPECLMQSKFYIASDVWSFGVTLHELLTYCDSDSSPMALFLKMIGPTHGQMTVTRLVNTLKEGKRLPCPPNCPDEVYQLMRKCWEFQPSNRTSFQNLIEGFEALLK

Row | Compound | IC50 [13] | IC50 [14] | IC50 [15] | Ratio IC50 [16] | also measured
1 | Cc1cc(Nc2nc(N[C@@H](C)c3ncc(F)cn3)ncc2Cl)[nH]n1 |  |  |  |  | inhibition [1]: Active; inhibition [2]: Active
2 | Cc1cc(Nc2cc(N3CCN(C)CC3)nc(Sc3ccc(NC(=O)C4CC4)cc3)n2)n[nH]1 |  |  |  |  | Activity [3]: 18.2%; Activity [4]: 4.5%; Activity [5]: 1.6%; Activity [6]: 60.3%; Activity [7]: 15.5%; Activity [8]: 12.5%; Activity [9]: 2.6%; Activity [10]: 0.9%; Activity [11]: 57.3%; Activity [12]: 26.6%
3 | COc1ccc(-c2nc3c(NCC4CCN(C)CC4)c(C(N)=O)cnc3[nH]2)cc1 | 10300 nM | 977 nM | 4500 nM | 10 | 
4 | COc1ccc(-c2nc3c(NCC4CCN(C)CC4)c(Br)cnc3[nH]2)cc1 |  | 177 nM | 19200 nM |  | 
5 | COc1ccccc1-c1nc2c(NCC3CCN(C)CC3)c(Cl)cnc2[nH]1 | > 30000 nM | 12200 nM | > 30000 nM | 2 | 
6 | COc1cccc(-c2nc3c(NCC4CCN(C)CC4)c(Cl)cnc3[nH]2)c1 | 16200 nM | 274 nM | > 30000 nM | 59 | 
7 | COc1ccc(F)c(-c2nc3c(NCC4CCNCC4)c(Cl)cnc3[nH]2)c1 | 13100 nM | 49 nM | 6140 nM | 267 | IC50 [17]: 76 nM; IC50 [18]: 157 nM; IC50 [19]: 76 nM; IC50 [20]: 11400 nM
8 | COc1ccc(-c2nc3c(NCC4CCNCC4)c(Cl)cnc3[nH]2)c(F)c1 | 11800 nM | 106 nM | 6900 nM | 110 | IC50 [17]: 34 nM
9 | COc1cc(F)c(-c2nc3c(NCC4CCNCC4)c(Cl)cnc3[nH]2)cc1F | > 17000 nM | 173 nM | 7470 nM | > 99 | IC50 [17]: 71 nM
10 | CN1CCC(CNc2c(Cl)cnc3[nH]c(-c4ccc(S(C)(=O)=O)cc4)nc23)CC1 | 2780 nM | 356 nM | 27600 nM | 8 | 
11 | COc1ccc(F)c(-c2nc3c(NCC4CCN(C)CC4)c(Cl)cnc3[nH]2)c1 | > 30000 nM | 275 nM | > 30000 nM | > 109 | 
12 | COc1ccc(-c2nc3c(NCC4CCN(C)CC4)c(C#N)cnc3[nH]2)cc1 | > 30000 nM | 4510 nM | > 30000 nM | > 6 | 
13 | COc1ccc(-c2nc3c(OCC4CCNCC4)c(Cl)cnc3[nH]2)cc1 | 10100 nM | 177 nM | 2780 nM | 57 | 
14 | COc1ccc(-c2nc3c(NCC4CCN(C)CC4)c(Cl)cnc3[nH]2)cc1OC | 9900 nM | 73 nM | > 30000 nM | 137 | 
15 | COc1ccc(-c2nc3c(NCC4CCN(C)CC4)c(Cl)cnc3[nH]2)c(C)c1 | 2700 nM | 36 nM | 6600 nM | 75 | 
16 | COc1ccc(-c2nc3c(NCC4CCNCC4)c(Cl)cnc3[nH]2)cc1OC | 2270 nM | 4.9 nM | 1200 nM | 463 | IC50 [17]: 87 nM; IC50 [18]: 16 nM; IC50 [19]: 57 nM; IC50 [20]: 1280 nM
17 | CN1CCC(CNc2c(Cl)cnc3[nH]c(-c4cccc(F)c4)nc23)CC1 | 16200 nM | 832 nM | > 30000 nM | 19 | 
18 | COc1ccc(-c2nc3c(NCC4CCNCC4)c(Cl)cnc3[nH]2)c(C)c1 | 2890 nM | 9 nM | 1540 nM | 314 | IC50 [17]: 37 nM
19 | COc1ccc(-c2nc3c(NCC4CCNCC4)ccnc3[nH]2)cc1 | > 30000 nM | > 30000 nM | > 30000 nM |  | 
20 | COc1ccc(-c2nc3c(N(C)CC4CCNCC4)c(Cl)cnc3[nH]2)cc1 | > 30000 nM | 872 nM | > 30000 nM | > 34 | 
21 | CN1CCC(CNc2c(Cl)cnc3[nH]c(-c4cccc(S(C)(=O)=O)c4)nc23)CC1 | > 30000 nM | 4910 nM | > 30000 nM | > 6 | 

Continued, in another order:

Row | IC50 [13] | IC50 [14] | IC50 [15] | Ratio IC50 [16] | Compound | also measured
22 | 1450 nM | 17 nM | 1130 nM | 85 | COc1ccc(-c2nc3c(NCC4CCNCC4)c(Cl)cnc3[nH]2)cc1 | IC50 [17]: 29 nM
23 | > 22000 nM | 801 nM | > 30000 nM | > 28 | COCCN1CCC(CNc2c(Cl)cnc3[nH]c(-c4ccc(OC)cc4)nc23)CC1 | 
24 | 9620 nM | 317 nM | > 30000 nM | 30 | COc1ccc(-c2nc3c(NCC4CCN(C)CC4)c(Cl)cnc3[nH]2)cc1 | 
25 | > 30000 nM | > 30000 nM | > 30000 nM |  | CNc1c(Cl)cnc2[nH]c(-c3ccc(OC)cc3)nc12 | 
26 | > 30000 nM | > 30000 nM | > 30000 nM |  | COc1ccc(-c2nc3c(NC4CCN(C(C)=O)CC4)c(Cl)cnc3[nH]2)cc1 | 
27 | 3040 nM | 138 nM | 5750 nM | 22 | COc1ccc(-c2nc3c(NCC4CCCNC4)c(Cl)cnc3[nH]2)cc1 (stereo not given) | 
28 | 14900 nM | 561 nM | 16900 nM | 27 | COc1ccc(-c2nc3c(NC4CCN(C)CC4)c(Cl)cnc3[nH]2)cc1 | 
29 | > 30000 nM | 2100 nM | > 30000 nM | > 14 | COCCNc1c(Cl)cnc2[nH]c(-c3ccc(OC)cc3)nc12 | 
30 | 13900 nM | 199 nM | > 22000 nM | 70 | COc1ccc(-c2nc3c(NCC4CCNC4)c(Cl)cnc3[nH]2)cc1 (stereo not given) | 
31 | > 30000 nM | 5230 nM | > 30000 nM | 2 | COc1ccc(-c2nc3c(NCCO)c(Cl)cnc3[nH]2)cc1 | 

From ChEMBL document CHEMBL3745697, “Identification of azabenzimidazoles as potent JAK1 selective inhibitors” (Bioorg Med Chem Lett, 2016)
